Marks after values point to notes of the source that are not given here.
How the values were obtained:
WI-38 cells = assay: Inhibition of internalization of P. aeruginosa strain PAO1 into WI-38 cells; assay type: cell-based, human; conditions: strain PAO1, WI 38 cells, 1 nM peptide
Procedure: (§1) WI-38 (human diploid lung cell line, ATCC. no. CCL-75) and A549 cells (human lung carcinoma cells, ATCC no. CCL-185) were obtained from the ATCC and grown according to their instructions.
(§2) Bacterial ingestion assay. Cells were released from monolayers in tissue culture flasks by 5 min. of incubation with trypsin-versene mixture (BioWhitaker, Walkersville, Md.), washed, counted and seeded into 96-well tissue culture plates at 10^5 cells/well in supplemented F-12 medium and incubated at 37° C. in 5% CO2. Fresh cultures of P. aeruginosa grown overnight at 37° C. on a tryptic soy agar plate were suspended in supplemented F-12 medium to prepare the bacterial inoculum. Then 10^6 colony forming units (cfu) of the bacterial inoculum were added per well of 10^5 epithelial cells. […] Three to 9 replicates were obtained per point, and analyzed using analysis of variance (ANOVA) and the Fisher PLSD statistic to determine pairwise differences.
(§3) Inhibition of ingestion in the presence of membranes isolated from C127 cells, monoclonal antibodies to extracellular domains of CFTR, or synthetic peptides corresponding to the first or fourth extracellular domains of CFTR was evaluated by adding these materials to the bacteria prior to adding them directly into wells for evaluation of bacterial uptake. […]

A549 cells = assay: Inhibition of internalization of P. aeruginosa strain PAO1 into A549 cells; assay type: cell-based, human; conditions: 1 nM peptide
Procedure: as §1, §2, §3

[1] = tested on: P. aeruginosa strain PAO1; assay: Neonatal mouse model of infection, CFTR peptide added to bacterial inoculum; assay type: in vivo; conditions: 7-day old mice, 10 nM peptide added to PAO1 inoculum, intranasal, 24 hours after infection; for Median cfu (10th-90th percentile cfu) P. aeruginosa internalized per mg. lung tissue: gentamicin-exclusion
Procedure: Neonatal mouse model of infection. Seven-day old neonatal Balb/c mice were infected with ˜10^8 cfu of stain PAO1 delivered intranasally as described, with the addition of 10 nM of a synthetic peptide corresponding to either the first or fourth extracellular domains of CFTR to the bacterial inoculum. Twenty-four hours later 7 animals were killed, right and left lungs removed, weighed and dispersed into single cell suspensions by grinding through a fine-mesh wire screen. An aliquot was removed, Triton X-100 added to a final concentration of 0.5% to release intracellular bacteria and the total cfu of bacteria present in each lung determined. The remaining portion of the lung cell suspension was treated with 300 μg gentamicin/ml for 60 minutes to kill extracellular P. aeruginosa. The cells were then pelleted in a centrifuge (400×g, 10 minutes), washed twice in RPMI medium, and resuspended in 200 μl of 0.5% Triton X-100 to release intracellular bacteria that survived the gentamicin treatment. These suspensions were diluted and plated for bacterial enumeration. The cfu per milligram lung weight was calculated and differences among groups analyzed by nonparametric statistics (Mann-Whitney U test) due to outliers in some groups.
To confirm that binding and internalization of P. aeruginosa by the first predicted extracellular domain of CFTR is important in resistance to lung infection, 7-day old Balb/c mice were nasally inoculated with 10^8 cfu of P. aeruginosa stain PAO1 mixed with either 10 nM of the peptide corresponding to the first or fourth predicted extracellular domains of CFTR and the course of bacterial infection was followed for over 24 hours. […] Thus, inhibiting P. aeruginosa internalization by blocking the bacterial interaction with CFTR in the lung leads to increased bacterial counts in this tissue, indicating an important mechanism for clearance of P. aeruginosa from the lung following inhalation of these organisms.

[2] = listed as First extracellular domain
[3] = listed as first extracellular domain peptide
[4] = listed as Fourth extracellular domain

## GRIIASYDPDNKEER (listed as Homo Sapiens) [First domain]
WI-38 cells
  Mean cfu (standard deviation) of P. aeruginosa internalized: 3.497 × 10^4 (3.751 × 10^3)^a cfu
A549 cells
  Mean cfu (standard deviation) of P. aeruginosa internalized: 3.2833 × 10^4 (4.32 × 10^3)^a cfu
[1]; [2]
  Median cfu (10th-90th percentile cfu) P. aeruginosa internalized per mg. lung tissue: 0 (0-278) cfu per mg lung tissue
  Median cfu (10th-90th percentile cfu) P. aeruginosa total per mg. lung tissue: 152,419 (37,860-519,612) cfu per mg lung tissue
[1]; [3]
  Median cfu (10th-90th percentile cfu) P. aeruginosa internalized per mg. lung tissue: virtually no internalized P. aeruginosa
  Median cfu (10th-90th percentile cfu) P. aeruginosa total per mg. lung tissue: ~1.5×10^5 cfu per mg lung tissue

## LWLLGNTPLQDKGNSTHSRNNSYAVIITSTS (listed as Homo Sapiens) [Fourth domain, reference compound]
WI-38 cells
  Mean cfu (standard deviation) of P. aeruginosa internalized: 7.3433 × 10^4 (9.124 × 10^3) cfu
A549 cells
  Mean cfu (standard deviation) of P. aeruginosa internalized: 8.7333 × 10^4 (1.1506 × 10^4) cfu
[1]; [4]
  Median cfu (10th-90th percentile cfu) P. aeruginosa internalized per mg. lung tissue: 13,246 (3,578-49,558) cfu per mg lung tissue
  Median cfu (10th-90th percentile cfu) P. aeruginosa total per mg. lung tissue: 20,450 (4,000-61,008) cfu per mg lung tissue
[1]; listed as fourth extracellular domain peptide
  Median cfu (10th-90th percentile cfu) P. aeruginosa internalized per mg. lung tissue: > 10^4 cfu per mg lung tissue
[1]; listed as fourth predicted extracellular domain
  Median cfu (10th-90th percentile cfu) P. aeruginosa total per mg. lung tissue: ~2×10^4 cfu per mg lung tissue

Source: US6825178B1, “Methods and products for treating pseudomonas infection” (The Brigham and Women's Hospital, Inc., priority 1996, dated 2004)
